*1 amine or outer side, *2 acyl side, *3 side chain or, on linkers, in order; H or OH if unused. Where a SMILES comes first, the peptide text is derived from it. Bridges are numbered along the chain shown (N, C = ends). Side-chain parts run from the residue outwards. [ ]: non-standard residue; d: D form. The star is where a group is joined. γGlu = O=C(O)[C@H](CCC(=O)[*:2])N[*:1]; Palmitoyl = CCCCCCCCCCCCCCCC(=O)*; Nle = CCCC[C@H](N)C(=O)O; Aib = CC(C)(N)C(=O)O
molecular target: T1, human GCGR (Homo sapiens, UniProt P47871); experiment: cAMP activity assay, cells expressing human GCGR; type: cell-based; conditions: cAMP production, cells expressing human GCGR, 1 hour; table does not say whether with or without 20% human serum
T1 construct: expressed in transfected cells
Protocol: Activity of the peptides at the Glucagon receptor (GCGR) and GLP-1 receptor (GLP1R) was measured in a cAMP activity assay. Peptides were dissolved in 100% DMSO and serially diluted to generate 10 point titrations. The peptide solutions were then transferred into 384-well assay plates (150 nL/well). Assay ready frozen cells expressing human GLP1R or human GCGR were suspended in growth media consisting of DMEM medium (GIBCO), 10% FBS (GIBCO), 1×NEAA(GIBCO), 1×P/S (GIBCO), 10 ug/ml Blasticidin (GIBCO) and 200 μg/mL Hygromycin (GIBCO). […] The cell suspensions (15 μL) were then added to the assay plates containing the peptide solutions (30,000 cells/well for human GCGR; 10,000 cells/well for human GLP1R). […] Production of cAMP was determined using […] kits (DiscoverX) following manufacturer protocol. The plates were incubated for overnight at room temperature in the dark. Luminescence was measured using an EnVision Multilabel plate reader (Perkin Elmer). Native GLP-1 and Glucagon (Bachem) are used as control peptides.

T1 sequence (P47871 26-477): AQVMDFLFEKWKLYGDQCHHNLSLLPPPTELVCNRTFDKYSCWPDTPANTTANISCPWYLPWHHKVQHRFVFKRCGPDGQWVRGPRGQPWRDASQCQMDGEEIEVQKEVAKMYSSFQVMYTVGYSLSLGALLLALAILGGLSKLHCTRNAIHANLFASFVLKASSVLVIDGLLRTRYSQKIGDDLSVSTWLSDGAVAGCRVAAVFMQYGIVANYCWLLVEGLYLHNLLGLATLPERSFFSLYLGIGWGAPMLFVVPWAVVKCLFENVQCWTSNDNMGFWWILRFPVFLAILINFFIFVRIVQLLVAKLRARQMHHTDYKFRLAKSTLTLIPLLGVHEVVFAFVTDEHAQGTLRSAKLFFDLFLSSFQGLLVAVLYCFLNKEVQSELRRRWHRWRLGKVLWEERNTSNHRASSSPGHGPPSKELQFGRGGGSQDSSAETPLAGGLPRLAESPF

SMILES	EC50 [nM]
CCCCCCCCCCCCCCCC(=O)N[C@@H](CCC(=O)N[C@@H](CCC(=O)NCCCC[C@H](NC(=O)[C@H](CC(=O)O)NC(=O)[C@H](CO)NC(=O)[C@@H](NC(=O)[C@H](Cc1ccccc1)NC(=O)[C@@H](NC(=O)CNC(=O)[C@H](CCC(N)=O)NC(=O)[C@@H](CO)NC(=O)[C@@H](N)Cc1c[nH]cn1)[C@@H](C)O)[C@@H](C)O)C(=O)N[C@@H](CO)C(=O)N[C@@H](CCCCN)C(=O)N[C@@H](Cc1ccc(O)cc1)C(=O)N[C@@H](CC(C)C)C(=O)N[C@@H](CC(=O)O)C(=O)N[C@@H](C)C(=O)N[C@H]1CCCCNC(=O)CC[C@@H](C(=O)N[C@@H](Cc2ccccc2)C(=O)N[C@H](C(=O)N[C@@H](CCC(N)=O)C(=O)N[C@@H](Cc2c[nH]c3ccccc23)C(=O)N[C@@H](CC(C)C)C(=O)N[C@@H](CC(C)C)C(=O)N[C@@H](CC(=O)O)C(=O)N[C@H](C(N)=O)[C@@H](C)O)C(C)C)NC(=O)[C@H](CCC(N)=O)NC(=O)[C@H](C)NC(=O)[C@H](C)NC1=O)C(=O)O)C(=O)O [SEQ ID NO: 12]	0.06

same assay, conditions: ratio of human GCGR EC50 to human GLP1R EC50

SMILES	hGCGR/hGLPIR (hTone)
CCCCCCCCCCCCCCCC(=O)N[C@@H](CCC(=O)N[C@@H](CCC(=O)NCCCC[C@H](NC(=O)[C@H](CC(=O)O)NC(=O)[C@H](CO)NC(=O)[C@@H](NC(=O)[C@H](Cc1ccccc1)NC(=O)[C@@H](NC(=O)CNC(=O)[C@H](CCC(N)=O)NC(=O)[C@@H](CO)NC(=O)[C@@H](N)Cc1c[nH]cn1)[C@@H](C)O)[C@@H](C)O)C(=O)N[C@@H](CO)C(=O)N[C@@H](CCCCN)C(=O)N[C@@H](Cc1ccc(O)cc1)C(=O)N[C@@H](CC(C)C)C(=O)N[C@@H](CC(=O)O)C(=O)N[C@@H](CCC(=O)O)C(=O)N[C@@H](CCCNC(=N)N)C(=O)N[C@@H](C)C(=O)N[C@@H](C)C(=O)N[C@H]1CCCCNC(=O)CC[C@@H](C(=O)N[C@@H](Cc2c[nH]c3ccccc23)C(=O)N[C@@H](CC(C)C)C(=O)N[C@@H](CC(C)C)C(=O)N[C@@H](CC(=O)O)C(=O)N[C@H](C(N)=O)[C@@H](C)O)NC(=O)[C@H](C(C)C)NC(=O)[C@H](Cc2ccccc2)NC(=O)[C@H](CC(=O)O)NC1=O)C(=O)O)C(=O)O [SEQ ID NO: 8] (H-H[dS]QGTFTSDK([γGlu-γGlu-Palmitoyl])SKYLDERAAKDFVEWLLDT-NH2; lactam 20-24; N-terminus assumed)	0.84
CCCCCCCCCCCCCCCC(=O)N[C@@H](CCC(=O)N[C@@H](CCC(=O)NCCCC[C@H](NC(=O)[C@H](CC(=O)O)NC(=O)[C@H](CO)NC(=O)[C@@H](NC(=O)[C@H](Cc1ccccc1)NC(=O)[C@@H](NC(=O)CNC(=O)[C@H](CCC(N)=O)NC(=O)[C@@H](CO)NC(=O)[C@@H](N)Cc1c[nH]cn1)[C@@H](C)O)[C@@H](C)O)C(=O)N[C@@H](CO)C(=O)N[C@@H](CCCCN)C(=O)N[C@@H](Cc1ccc(O)cc1)C(=O)N[C@@H](CC(C)C)C(=O)N[C@@H](CC(=O)O)C(=O)N[C@H]1CCCCNC(=O)CC[C@@H](C(=O)N[C@@H](CC(=O)O)C(=O)N[C@@H](Cc2ccccc2)C(=O)N[C@H](C(=O)N[C@@H](CCC(N)=O)C(=O)N[C@@H](Cc2c[nH]c3ccccc23)C(=O)N[C@@H](CC(C)C)C(=O)N[C@@H](CC(C)C)C(=O)N[C@@H](CC(=O)O)C(=O)N[C@H](C(N)=O)[C@@H](C)O)C(C)C)NC(=O)[C@H](C)NC(=O)[C@H](C)NC(=O)[C@H](CCCNC(=N)N)NC1=O)C(=O)O)C(=O)O [SEQ ID NO: 10] (H-H[dS]QGTFTSDK([γGlu-γGlu-Palmitoyl])SKYLDKRAAEDFVQWLLDT-NH2; lactam 16-20; N-terminus assumed)	0.8
CCCCCCCCCCCCCCCC(=O)N[C@@H](CCC(=O)N[C@@H](CCC(=O)NCCCC[C@H](NC(=O)[C@H](CC(=O)O)NC(=O)[C@H](CO)NC(=O)[C@@H](NC(=O)[C@H](Cc1ccccc1)NC(=O)[C@@H](NC(=O)CNC(=O)[C@H](CCC(N)=O)NC(=O)[C@@H](CO)NC(=O)[C@@H](N)Cc1c[nH]cn1)[C@@H](C)O)[C@@H](C)O)C(=O)N[C@@H](CO)C(=O)N[C@@H](CCCCN)C(=O)N[C@@H](Cc1ccc(O)cc1)C(=O)N[C@@H](CC(C)C)C(=O)N[C@@H](CC(=O)O)C(=O)N[C@@H](C)C(=O)N[C@H]1CCCCNC(=O)CC[C@@H](C(=O)N[C@@H](Cc2ccccc2)C(=O)N[C@H](C(=O)N[C@@H](CCC(N)=O)C(=O)N[C@@H](Cc2c[nH]c3ccccc23)C(=O)N[C@@H](CC(C)C)C(=O)N[C@@H](CC(C)C)C(=O)N[C@@H](CC(=O)O)C(=O)N[C@H](C(N)=O)[C@@H](C)O)C(C)C)NC(=O)[C@H](CCC(N)=O)NC(=O)[C@H](C)NC(=O)[C@H](C)NC1=O)C(=O)O)C(=O)O [SEQ ID NO: 12]	0.8
CCCCCCCCCCCCCCCC(=O)N[C@@H](CCC(=O)N[C@@H](CCC(=O)NCCCC[C@H](NC(=O)[C@H](CC(=O)O)NC(=O)[C@H](CO)NC(=O)[C@@H](NC(=O)[C@H](Cc1ccccc1)NC(=O)[C@@H](NC(=O)CNC(=O)[C@H](CCC(N)=O)NC(=O)[C@@H](CO)NC(=O)[C@@H](N)Cc1c[nH]cn1)[C@@H](C)O)[C@@H](C)O)C(=O)N[C@@H](CO)C(=O)N[C@@H](CCCCN)C(=O)N[C@@H](Cc1ccc(O)cc1)C(=O)N[C@@H](CC(C)C)C(=O)N[C@@H](CC(=O)O)C(=O)N[C@@H](C)C(=O)N[C@@H](CCCNC(=N)N)C(=O)N[C@@H](C)C(=O)N[C@@H](C)C(=O)N[C@@H](CCC(N)=O)C(=O)N[C@@H](CC(=O)O)C(=O)N[C@@H](Cc1ccccc1)C(=O)N[C@H](C(=O)N[C@H]1CCCCNC(=O)CC[C@@H](C(=O)N[C@H](C(N)=O)[C@@H](C)O)NC(=O)[C@H](CC(C)C)NC(=O)[C@H](CC(C)C)NC(=O)[C@H](Cc2c[nH]c3ccccc23)NC1=O)C(C)C)C(=O)O)C(=O)O [SEQ ID NO: 13] (H-H[dS]QGTFTSDK([γGlu-γGlu-Palmitoyl])SKYLDARAAQDFVKWLLET-NH2; lactam 24-28; N-terminus assumed)	0.56
CCCCCCCCCCCCCCCC(=O)N[C@@H](CCC(=O)N[C@@H](CCC(=O)NCCCC[C@H](NC(=O)[C@H](CC(=O)O)NC(=O)[C@H](CO)NC(=O)[C@@H](NC(=O)[C@H](Cc1ccccc1)NC(=O)[C@@H](NC(=O)CNC(=O)[C@H](CCC(N)=O)NC(=O)C(C)(C)NC(=O)[C@@H](N)Cc1c[nH]cn1)[C@@H](C)O)[C@@H](C)O)C(=O)N[C@@H](CO)C(=O)N[C@@H](CCCCN)C(=O)N[C@@H](Cc1ccc(O)cc1)C(=O)N[C@@H](CC(C)C)C(=O)N[C@@H](CC(=O)O)C(=O)N[C@H]1CCCCNC(=O)CC[C@@H](C(=O)N[C@@H](CC(=O)O)C(=O)N[C@@H](Cc2ccccc2)C(=O)N[C@H](C(=O)N[C@@H](CCC(N)=O)C(=O)N[C@@H](Cc2c[nH]c3ccccc23)C(=O)N[C@@H](CC(C)C)C(=O)N[C@@H](CCCC)C(=O)N[C@@H](CC(=O)O)C(=O)N[C@H](C(N)=O)[C@@H](C)O)C(C)C)NC(=O)[C@H](C)NC(=O)[C@H](C)NC(=O)[C@H](CCCNC(=N)N)NC1=O)C(=O)O)C(=O)O [SEQ ID NO: 14] (H-H[Aib]QGTFTSDK([γGlu-γGlu-Palmitoyl])SKYLDKRAAEDFVQWL[Nle]DT-NH2; lactam 16-20; N-terminus assumed)	1.41
CCCCCCCCCCCCCCCC(=O)N[C@@H](CCC(=O)N[C@@H](CCC(=O)NCCCC[C@H](NC(=O)[C@H](CC(=O)O)NC(=O)[C@H](CO)NC(=O)[C@@H](NC(=O)[C@H](Cc1ccccc1)NC(=O)[C@@H](NC(=O)CNC(=O)[C@H](CCC(N)=O)NC(=O)C(C)(C)NC(=O)[C@@H](N)Cc1c[nH]cn1)[C@@H](C)O)[C@@H](C)O)C(=O)N[C@@H](CO)C(=O)N[C@@H](CCCCN)C(=O)N[C@@H](Cc1ccc(O)cc1)C(=O)N[C@@H](CC(C)C)C(=O)N[C@@H](CC(=O)O)C(=O)NC(C)(C)C(=O)N[C@@H](CCCNC(=N)N)C(=O)N[C@@H](C)C(=O)N[C@@H](C)C(=O)N[C@H]1CCCCNC(=O)CC[C@@H](C(=O)N[C@@H](Cc2c[nH]c3ccccc23)C(=O)N[C@@H](CC(C)C)C(=O)N[C@@H](CCCC)C(=O)N[C@@H](CC(=O)O)C(=O)N[C@H](C(N)=O)[C@@H](C)O)NC(=O)[C@H](C(C)C)NC(=O)[C@H](Cc2ccccc2)NC(=O)[C@H](CC(=O)O)NC1=O)C(=O)O)C(=O)O [SEQ ID NO: 15] (H-H[Aib]QGTFTSDK([γGlu-γGlu-Palmitoyl])SKYLD[Aib]RAAKDFVEWL[Nle]DT-NH2; lactam 20-24; N-terminus assumed)	2.61

Reference: US20230285514A1, “STAPLED LACTAM CO-AGONISTS OF THE GLUCAGON AND GLP-1 RECEPTORS” (Merck Sharp & Dohme LLC, priority 2019, published 2023)
